Values of other authors as cited in US20060251720A1, “Localized controlled absorption of statins in the gastrointestinal tract for achieving high blood levels of statins” (priority 2004, published 2006).

Key:
HMG-CoA reductase = molecular target: T1, HMG-CoA reductase (Homo sapiens, UniProt P04035); settings: relative to the beta-hydroxy acid form taken as the drug
T1 sequence (P04035 1-888): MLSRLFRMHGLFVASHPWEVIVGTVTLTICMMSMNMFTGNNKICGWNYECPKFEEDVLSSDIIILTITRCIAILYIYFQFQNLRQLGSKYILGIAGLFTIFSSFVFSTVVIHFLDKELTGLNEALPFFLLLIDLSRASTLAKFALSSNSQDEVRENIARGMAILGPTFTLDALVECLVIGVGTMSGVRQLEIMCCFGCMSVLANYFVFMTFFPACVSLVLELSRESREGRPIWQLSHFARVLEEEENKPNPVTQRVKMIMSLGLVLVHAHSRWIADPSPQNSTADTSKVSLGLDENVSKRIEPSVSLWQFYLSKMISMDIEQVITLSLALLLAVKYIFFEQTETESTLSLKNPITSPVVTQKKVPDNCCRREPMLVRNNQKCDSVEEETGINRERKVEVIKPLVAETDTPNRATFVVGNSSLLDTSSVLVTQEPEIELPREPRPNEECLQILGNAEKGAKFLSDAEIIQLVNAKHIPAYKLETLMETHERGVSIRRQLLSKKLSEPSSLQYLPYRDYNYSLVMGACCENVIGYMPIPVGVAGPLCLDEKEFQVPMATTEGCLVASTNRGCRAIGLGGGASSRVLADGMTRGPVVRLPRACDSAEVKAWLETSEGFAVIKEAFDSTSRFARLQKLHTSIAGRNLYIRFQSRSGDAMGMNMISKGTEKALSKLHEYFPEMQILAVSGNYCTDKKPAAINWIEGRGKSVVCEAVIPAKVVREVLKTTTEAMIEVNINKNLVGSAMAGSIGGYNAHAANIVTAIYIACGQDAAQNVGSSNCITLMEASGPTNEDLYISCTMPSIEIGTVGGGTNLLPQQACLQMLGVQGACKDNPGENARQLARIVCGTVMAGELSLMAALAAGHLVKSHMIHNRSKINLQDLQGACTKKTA

[1] = test system: plasma proteins, primarily albumin

## CCC(C)(C)C(=O)O[C@H]1C[C@@H](CO)C=C2C=C[C@H](C)[C@H](CC[C@@H]3C[C@@H](O)CC(=O)O3)[C@H]21 [6-beta-hydroxymethyl simvastatin]
HMG-CoA reductase
  HMG-CoA reductase activity retained: approximately 40%

## CCC(C)(C)C(=O)OC1CC(C)(O)C=C2C=CC(C)C(CCC3CC(O)CC(=O)O3)C21 (stereo not drawn) [6-beta-hydroxy simvastatin]
HMG-CoA reductase
  HMG-CoA reductase activity retained: ~50%

## CCC(C)(C)C(=O)O[C@H]1C[C@@H](C)C=C2C=C[C@H](C)[C@H](CC[C@@H]3C[C@@H](O)CC(=O)O3)[C@H]21 [simvastatin]
[1]
  bound to plasma proteins, primarily to albumin: more than 95%
